Assay results as given in PubChem BioAssay AID248 (DTP/NCI, 2004).
Several values for one entry are separate records, joined by “and”; a condition that tells them apart may be missing. Identical values can stand only once. Toxic doses and inconclusive results are not listed.

Tested on: L1210 leukemia ip in BDF1 mice, survival T/C
Experiment: NCI In Vivo Anticancer Drug Screen. Data for tumor model L1210 Leukemia (intraperitoneal) in B6D2F1 (BDF1) mice
Conditions: endpoint: mean survival time, higher = longer survival
In short: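 In this screen, tumor-bearing mice given compound are compared to those given vehicle, and their survival values are reported as a treated-to-control quotient.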

[1] = dose: 100.0 mg/kg/injection, schedule: Q01DX009 (ip), vehicle: saline with Tween-80
[2] = dose: 200.0 mg/kg/injection, schedule: Q01DX009 (ip), vehicle: saline with Tween-80
[3] = dose: 100.0 mg/kg/injection, schedule: Q01DX001 (ip), vehicle: saline
[4] = dose: 200.0 mg/kg/injection, schedule: Q01DX001 (ip), vehicle: saline
[5] = dose: 100.0 mg/kg/injection, schedule: Q01DX009 (ip), vehicle: Klucel (hydroxypropylcellulose) (HPC)
[6] = dose: 200.0 mg/kg/injection, schedule: Q01DX009 (ip), vehicle: Klucel (hydroxypropylcellulose) (HPC)

CN(C)CC(C(=O)c1ccc(Br)cc1)C(Br)c1ccccc1 (configuration not stated)
T/C (dose: 0.78 mg/kg/injection, schedule: Q01DX009 (ip), vehicle: saline): 94 % of control | T/C (dose: 1.56 mg/kg/injection, schedule: Q01DX009 (ip), vehicle: saline): 92 % of control | T/C (dose: 3.12 mg/kg/injection, schedule: Q01DX009 (ip), vehicle: saline): 97 % of control | T/C (dose: 12.5 mg/kg/injection, schedule: Q04DX003 (ip), vehicle: saline with Tween-80): 95 % of control | T/C (dose: 25.0 mg/kg/injection, schedule: Q04DX003 (ip), vehicle: saline with Tween-80): 91 % of control

COc1ccc(C(=O)NC(=S)Nc2cccc([N+](=O)[O-])c2)cc1
T/C [1]: 95 % of control and 88 % of control | T/C (dose: 100.0 mg/kg/injection, schedule: Q04DX002 (ip), vehicle: saline): 88 % of control | T/C [2]: 88 % of control and 89 % of control | T/C (dose: 200.0 mg/kg/injection, schedule: Q04DX002 (ip), vehicle: saline): 91 % of control | T/C (dose: 400.0 mg/kg/injection, schedule: Q01DX009 (ip), vehicle: saline with Tween-80): 103 % of control | T/C (dose: 400.0 mg/kg/injection, schedule: Q04DX002 (ip), vehicle: saline): 98 % of control

NC(N)=N/N=C(/c1ccccc1)c1ccc(N)cc1
T/C (dose: 3.5 mg/kg/injection, schedule: Q01DX Z (oral), vehicle: carboxymethylcellulose (CMC)): 102 % of control | T/C (dose: 75.0 mg/kg/injection, schedule: Q01DX Z (oral), vehicle: carboxymethylcellulose (CMC)): 102 % of control | T/C (dose: 150.0 mg/kg/injection, schedule: Q01DX Z (oral), vehicle: carboxymethylcellulose (CMC)): 98 % of control | T/C (dose: 300.0 mg/kg/injection, schedule: Q01DX Z (oral), vehicle: carboxymethylcellulose (CMC)): 104 % of control

CC(=O)N1C=Cn2c(cnc2C)C1O (configuration not stated)
T/C (dose: 100.0 mg/kg/injection, schedule: Q01DX009 (ip), vehicle: water): 104 % of control | T/C (dose: 100.0 mg/kg/injection, schedule: Q04DX003 (ip), vehicle: water): 109 % of control | T/C (dose: 200.0 mg/kg/injection, schedule: Q01DX009 (ip), vehicle: water): 94 % of control | T/C (dose: 200.0 mg/kg/injection, schedule: Q04DX003 (ip), vehicle: water): 102 % of control | T/C (dose: 400.0 mg/kg/injection, schedule: Q04DX003 (ip), vehicle: water): 98 % of control

Nc1ccc(OCC(=O)Nc2ccc(S(=O)(=O)F)cc2)cc1
T/C [3]: 101 % of control | T/C [4]: 103 % of control

CCCCN=C(NC(=S)Nc1ccc(Cl)cc1)SCC
T/C (dose: 100.0 mg/kg/injection, schedule: Q04DX002 (ip), vehicle: saline with Tween-80): 95 % of control | T/C (dose: 200.0 mg/kg/injection, schedule: Q04DX002 (ip), vehicle: saline with Tween-80): 92 % of control | T/C (dose: 400.0 mg/kg/injection, schedule: Q04DX002 (ip), vehicle: saline with Tween-80): 95 % of control

CCOC(=O)c1nnc(-c2ccccc2)[nH]c1=O
T/C (dose: 50.0 mg/kg/injection, schedule: Q01DX009 (ip), vehicle: Klucel (hydroxypropylcellulose) (HPC)): 92 % of control | T/C [5]: 103 % of control | T/C [6]: 103 % of control

O=C(c1ccccc1)c1ccsc1C(=O)c1ccccc1
T/C (dose: 50.0 mg/kg/injection, schedule: Q01DX009 (ip), vehicle: saline with Tween-80): 89 % of control | T/C [1]: 86 % of control | T/C [2]: 89 % of control

S=P(N1CC1)(N1CC1)N1CC1.[Cl-].[Cl-].[NH2-].[NH2-].[Pt+4]
T/C (dose: 1.8 mg/kg/injection, schedule: Q01DX009 (ip), vehicle: saline): 111 % of control and 103 % of control and 101 % of control | T/C (dose: 2.7 mg/kg/injection, schedule: Q01DX009 (ip), vehicle: saline): 111 % of control and 116 % of control | T/C (dose: 3.13 mg/kg/injection, schedule: Q01DX009 (ip), vehicle: Klucel (hydroxypropylcellulose) (HPC)): 150 % of control and 152 % of control | T/C (dose: 4.1 mg/kg/injection, schedule: Q01DX009 (ip), vehicle: saline): 164 % of control [middle of 5 runs] | T/C (dose: 6.25 mg/kg/injection, schedule: Q01DX009 (ip), vehicle: Klucel (hydroxypropylcellulose) (HPC)): 211 % of control and 166 % of control and 227 % of control | T/C (dose: 6.25 mg/kg/injection, schedule: Q01DX009 (ip), vehicle: saline): 233 % of control [middle of 4 runs] | T/C (dose: 9.3 mg/kg/injection, schedule: Q01DX009 (ip), vehicle: saline): 200 % of control and 277 % of control | T/C (dose: 12.5 mg/kg/injection, schedule: Q01DX009 (ip), vehicle: Klucel (hydroxypropylcellulose) (HPC)): 105 % of control and 92 % of control and 91 % of control | T/C (dose: 12.5 mg/kg/injection, schedule: Q01DX009 (ip), vehicle: saline): 98 % of control and 103 % of control

Clc1ccccc1C=Nc1cccc2ccccc12
T/C [5]: 121 % of control | T/C [6]: 104 % of control | T/C (dose: 400.0 mg/kg/injection, schedule: Q01DX009 (ip), vehicle: Klucel (hydroxypropylcellulose) (HPC)): 107 % of control

CC(C)(C)C(O)(C(=O)O)C(C)(C)C
T/C (dose: 50.0 mg/kg/injection, schedule: Q01DX001 (ip), vehicle: saline): 110 % of control | T/C [3]: 98 % of control | T/C [4]: 104 % of control | T/C (dose: 400.0 mg/kg/injection, schedule: Q01DX001 (ip), vehicle: saline): 100 % of control
